The record followed here is patent US20230348418A1, “ISOINDOLINONE COMPOUNDS” (Monte Rosa Therapeutics, Inc., priority 2021, published 2023).

The term pIC50 denotes the negative decadic logarithm of the IC50, by convention in mol/L. A word on the DC50: it is the midpoint of the concentration-degradation curve.

pIC50: −log10 of the molar value. Read-outs that look alike come from different tables or passages of the source. Bounds are passed on as bounds.

Assay [1] addresses T1, Full length wild-type cereblon CRBN (Homo sapiens, UniProt Q96SW2).
T1 construct: Full length wild-type cereblon CRBN (80.0 nM, 10 μL) was incubated in assay buffer
Nature of the assay: Fluorescence polarization (FP) assay, cereblon binding. In outline: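 Full-length wild-type human CRBN (80.0 nM) was preincubated with compound for 30 min at room temperature in 20 mM HEPES pH 8.0, 150 NaCl, 0.5 mM TCEP and 0.05% Tween 20. A Cy5-type thalidomide-linked fluorescent probe was then added. The FP signal was normalized to the DMSO control to derive IC50.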
(In fluorescence polarisation assays a small probe gives low polarisation when free and higher when bound to something large.)

A further assay concerns the target T2, IKZF1 (Ikaros) (Homo sapiens, UniProt Q13422).
T2 construct: endogenous in cells; host or cells: MM1S (ATCC CRL-2974)
Nature of the assay: Western blot selectivity assay in MM1S cells: IKZF1. On the set-up: key: A represents a no degradation observed at 30 μM; B represents trace degradation at 30 μM (below 20%); C represents weak degradation at 30 μM (below 50%); D represents degradation at 30 μM (>90%); E represents degradation at 3 μM (>90%); F represents degradation at 0.3 μM (>90%). Type of assay: cell-based. The note with it: MM1S cells, 0.3, 3 and 30 μM, 6 hours. Here is the method:
(§1) MM1S cells were purchased from ATCC (cat. Number CRL-2974), sub-cultured in 90% RPMI 1640 with 10% FBS, supplemented with 1×P/S and incubated at 37° C., 5% CO2. Compounds were stored as 10 mM DMSO stock. For the assay, MM1S cells (3 million cells/well) were plated in 6-well plates and incubated over night. Cells were treated with respective compounds using a serial dilution: 0.3 μM, 3 μM and 30 μM as well as a vehicle only (DMSO) control for 6 hours. Media with suspension cells was subsequently transferred to 15 mL conical tubes, wells rinsed twice with ice-cold PBS and merged with cell suspension in respective 15 mL conical tube. Cells were spinned down, supernatant aspirated, pellets resuspended in ice-cold PBS and transferred to microtubes. Cells were spinned down, supernatant aspirated and pellets resuspended in 120 μL RIPA lysis buffer supplemented with protease and phosphatase inhibitors. Cell lysates were incubated on ice for 20 minutes followed by centrifugation at >20,000×g for 5 min. Supernatants were transferred to fresh microtubes and stored at −80° C. Total protein concentration was determined using a BCA assay with a BSA standard curve and concentration of all samples was adjusted to 1 mg/mL. 25 μL 4×LDS sample buffer supplemented with 100 mM DTT was added to 75 μL sample. Samples were centrifuged (8,000×g, 1 min) and incubated at 95° C. for 5 min followed by another centrifugation step (8,000×g, 1 min). 20 μL of each sample was loaded on a 4-12% gel alongside a protein molecular weight marker. Gels were run in the presence of MOPS buffer at 80 Volts for 30 min, followed by 120 Volts for 1.5 h and proteins subsequently transferred onto nitrocellulose membranes at 20 Volts for 7 min using an iBlot2 Gel Transfer Device. Membranes were then cut horizontally into two pieces, covering 80-50 kDa and 50-25 kDa. Blocking the membranes was performed by gently shaking in 5% (w/v) skim milk in TSB-T for 1 hr at room temperature. All primary antibodies were used at a 1/1000 in 5% (w/v) BSA dissolved in TBST and incubated with membranes over night at 4° C. Anti-IKZF1 (Ikaros; D6N9Y; 14859S), anti-IKZF3 (Aiolos; D1C1E; 15103S) antibodies were purchased from Cell Signalling Technology, anti-ZFP91 antibody from Bethyl laboratories, anti-GSPT1 from Sigma Aldrich (HPA052488) and anti CK1alpha from AbCam (ab206652). After three washes with 1×TBST for 5 min, HRP-coupled secondary antibodies diluted in 5% (w/v) BSA/TBST (Goat Anti-Rb IgG, dil. 1/10,000; Goat Anti-Mouse IgG, dil. 1/5000) were added for 1 hr at room temperature. After three washes with 1×TBST (5 minutes each), membranes were incubated with ECL reagent for 1 min at room temperature. Chemiluminescence signals were then detected using a LAS-4000 system with default settings and signals quantified using Image Studio Lite software (version 5.2). Membrane parts previously incubated with antibody against CK1alpha were stripped off antibodies by incubating with stripping buffer for 30 minutes followed by three washed with TBST (5 min each), blocking with 5% (w/v) skim milk for 1 hr, and incubation with primary antibody against GAPDH overnight at 4° C. Subsequent washes, incubation with secondary antibody and signal acquisition were performed as described above.
In general terms: In western blotting, separated proteins are transferred to a membrane and probed.

In assay [2] the target is T3, GSPT1 (Homo sapiens, UniProt P15170+Q96SW2). Nature of the assay: Western blot selectivity assay in MM1S cells: GSPT1. The class given is cell-based. On the set-up: endogenous in cells; host or cells: MM1S (ATCC CRL-2974). As to conditions: MM1S cells, 0.3, 3 and 30 μM, 6 hours. Here is the method: as §1
The target in another assay is T4, ZFP91 (Homo sapiens, UniProt Q96JP5).
T4 construct: endogenous in cells; host or cells: MM1S (ATCC CRL-2974)
Nature of the assay: Western blot selectivity assay in MM1S cells: ZFP91. The note with it: MM1S cells, 0.3, 3 and 30 μM, 6 hours. On the set-up: key: A represents a no degradation observed at 30 μM; B represents trace degradation at 30 μM (below 20%); C represents weak degradation at 30 μM (below 50%); D represents degradation at 30 μM (>90%); E represents degradation at 3 μM (>90%); F represents degradation at 0.3 μM (>90%). The class given is cell-based. The method, then: (§2) MM1S cells were purchased from ATCC (cat. Number CRL-2974), sub-cultured in 90% RPMI 1640 with 10% FBS, supplemented with 1×P/S and incubated at 37° C., 5% CO2. Compounds were stored as 10 mM DMSO stock. For the assay, MM1S cells (3 million cells/well) were plated in 6-well plates and incubated over night. Cells were treated with respective compounds using a serial dilution: 0.3 μM, 3 μM and 30 μM as well as a vehicle only (DMSO) control for 6 hours. Media with suspension cells was subsequently transferred to 15 mL conical tubes, wells rinsed twice with ice-cold PBS and merged with cell suspension in respective 15 mL conical tube. Cells were spinned down, supernatant aspirated, pellets resuspended in ice-cold PBS and transferred to microtubes. Cells were spinned down, supernatant aspirated and pellets resuspended in 120 μL RIPA lysis buffer supplemented with protease and phosphatase inhibitors. Cell lysates were incubated on ice for 20 minutes followed by centrifugation at >20,000×g for 5 min. Supernatants were transferred to fresh microtubes and stored at −80° C. Total protein concentration was determined using a BCA assay with a BSA standard curve and concentration of all samples was adjusted to 1 mg/mL. […] Chemiluminescence signals were then detected using a LAS-4000 system with default settings and signals quantified using Image Studio Lite software (version 5.2). […]

The next assay concerns the target T5, IKZF3 (Aiolos) (Homo sapiens, UniProt Q9UKT9).
T5 construct: endogenous in cells; host or cells: MM1S (ATCC CRL-2974)
The experiment in a line: Western blot selectivity assay in MM1S cells: IKZF3. Type of assay: cell-based. Also noted: key: A represents a no degradation observed at 30 μM; B represents trace degradation at 30 μM (below 20%); C represents weak degradation at 30 μM (below 50%); D represents degradation at 30 μM (>90%); E represents degradation at 3 μM (>90%); F represents degradation at 0.3 μM (>90%). The note with it: MM1S cells, 0.3, 3 and 30 μM, 6 hours. The method, then: as §1, with “After three washes with 1×TBST (5 minutes each), membranes were incubated with ECL reagent for 1 min at room temperature.” left out, “Membrane parts previously incubated with antibody against CK1alpha were stripped off antibodies by incubating with stripping buffer for 30 minutes followed by three washed with TBST (5 min each), blocking with 5% (w/v) skim milk for 1 hr, and incubation with primary antibody against GAPDH overnight at 4° C. Subsequent washes, incubation with secondary antibody and signal acquisition were performed as described above.” left out

The target of assay [3] is T3, GSPT1. Nature of the assay: Immunofluorescence assay for GSPT1 degradation in CAL-51 cells (Example 4). On the set-up: host or cells: CAL-51. The note with it: CAL-51 cells, 6 hours; read-out: Code (activity for GSPT1 degradation, DC50). The class given is cell-based. Here is the method:
The representative compounds were tested in an immunofluorescence assay for their activity to bind to degrade GSPT1. […] Compounds were stored at 10 mM DMSO stocks. […] Cells were subsequently rinsed with PBS and fixed in 10% Formalin solution (50 μl, Sigma HT5011)) for 20 mins at room temperature. […] Following three further PBS washes, […] blocking buffer (1% BSA, Sigma A4503, in PBS) was added for 45 min for signal-to-noise reduction.
Primary antibody (human GSPT1, Sigma HPA052488) was diluted in blocking buffer (dil.1/300, 35 μl/well) and incubated with the cells overnight at 4° C. […] After three final PBS washes, samples were conserved in 100 μl PBS in the dark, until measurement. Image acquisition was performed on the Operetta High-Content Imager (Perkin-Elmer). […] For the determination of GSPT1 DC50 values, a custom algorithm implemented in the PerkinElmer image analysis software Harmony-Acapella® was developed. After user-defined setting of adjustment parameters, the analysis was run identically without human intervention for all image fields. DAPI staining of the nuclei was used to determine the location of cells using standard nuclei detection modules. Segmentation artifacts were removed by threshold-based filters for area, roundness and intensity. The outline of the cells was determined analogously from the sum of the normalized, smoothed DAPI and Actin channel, starting from each nucleus.
GSPT1 degradation (DC50) was calculated after normalization to controls and data import in CDD vault Database, using non-linear regression.

Another assay addresses T6, CK1alpha (Homo sapiens, UniProt P48729).
T6 construct: endogenous in cells; host or cells: MM1S (ATCC CRL-2974)
The experiment in a line: Western blot selectivity assay in MM1S cells: CK1alpha. On the set-up: key: A represents a no degradation observed at 30 μM; B represents trace degradation at 30 μM (below 20%); C represents weak degradation at 30 μM (below 50%); D represents degradation at 30 μM (>90%); E represents degradation at 3 μM (>90%); F represents degradation at 0.3 μM (>90%). The class given is cell-based. As to conditions: MM1S cells, 0.3, 3 and 30 μM, 6 hours. Here is the method: as §2

The mark [4] stands for this setting: bounds stated in the text lists b2059-b2061, read-out: IC50 value.
The mark [5] stands for this setting: cereblon binding, class code, read-out: rFP IC50.

T5 sequence (Q96SW2 whole entry partner): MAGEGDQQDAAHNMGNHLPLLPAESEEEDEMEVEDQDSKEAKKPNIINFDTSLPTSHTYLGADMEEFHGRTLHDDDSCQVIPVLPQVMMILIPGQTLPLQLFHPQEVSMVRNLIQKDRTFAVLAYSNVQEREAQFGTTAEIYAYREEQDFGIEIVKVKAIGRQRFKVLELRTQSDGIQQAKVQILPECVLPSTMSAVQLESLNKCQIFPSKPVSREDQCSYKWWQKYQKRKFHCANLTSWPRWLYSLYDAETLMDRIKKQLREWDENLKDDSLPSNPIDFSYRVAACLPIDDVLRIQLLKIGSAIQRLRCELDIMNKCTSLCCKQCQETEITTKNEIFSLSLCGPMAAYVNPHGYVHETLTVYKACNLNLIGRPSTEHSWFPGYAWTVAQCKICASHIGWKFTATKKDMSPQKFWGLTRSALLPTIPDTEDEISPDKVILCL
T5 sequence (Q16531 2-1140 partner limits assumed): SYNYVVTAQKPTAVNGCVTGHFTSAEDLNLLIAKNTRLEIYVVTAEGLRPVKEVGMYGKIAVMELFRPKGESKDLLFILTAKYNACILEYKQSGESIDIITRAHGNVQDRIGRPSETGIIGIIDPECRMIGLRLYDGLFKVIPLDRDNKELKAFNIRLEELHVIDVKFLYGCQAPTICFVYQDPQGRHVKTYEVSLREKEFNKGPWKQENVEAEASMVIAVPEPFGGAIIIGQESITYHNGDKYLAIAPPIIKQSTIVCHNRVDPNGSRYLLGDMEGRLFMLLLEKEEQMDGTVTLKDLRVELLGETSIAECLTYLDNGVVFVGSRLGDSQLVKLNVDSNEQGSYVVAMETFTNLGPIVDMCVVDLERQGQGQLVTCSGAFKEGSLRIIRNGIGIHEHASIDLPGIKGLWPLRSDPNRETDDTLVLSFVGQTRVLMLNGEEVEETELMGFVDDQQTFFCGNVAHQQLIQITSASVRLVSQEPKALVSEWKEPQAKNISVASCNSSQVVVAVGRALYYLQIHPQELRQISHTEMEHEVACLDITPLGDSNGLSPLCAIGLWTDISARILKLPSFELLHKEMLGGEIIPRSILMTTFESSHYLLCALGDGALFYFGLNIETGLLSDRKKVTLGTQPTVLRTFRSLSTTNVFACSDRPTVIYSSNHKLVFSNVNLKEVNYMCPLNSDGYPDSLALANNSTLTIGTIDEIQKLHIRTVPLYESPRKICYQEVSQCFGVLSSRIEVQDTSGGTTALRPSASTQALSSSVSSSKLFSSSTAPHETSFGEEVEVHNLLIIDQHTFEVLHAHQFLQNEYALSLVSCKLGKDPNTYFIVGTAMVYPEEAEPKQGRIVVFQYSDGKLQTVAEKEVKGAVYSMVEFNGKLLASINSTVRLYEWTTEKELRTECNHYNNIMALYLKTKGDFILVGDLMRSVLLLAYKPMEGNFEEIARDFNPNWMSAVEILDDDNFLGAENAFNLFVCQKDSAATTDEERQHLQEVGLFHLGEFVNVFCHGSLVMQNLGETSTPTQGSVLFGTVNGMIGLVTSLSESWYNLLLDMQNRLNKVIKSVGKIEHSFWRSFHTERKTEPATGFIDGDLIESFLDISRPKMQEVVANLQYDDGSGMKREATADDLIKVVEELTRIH
T5 sequence (Q9UKT9 whole entry): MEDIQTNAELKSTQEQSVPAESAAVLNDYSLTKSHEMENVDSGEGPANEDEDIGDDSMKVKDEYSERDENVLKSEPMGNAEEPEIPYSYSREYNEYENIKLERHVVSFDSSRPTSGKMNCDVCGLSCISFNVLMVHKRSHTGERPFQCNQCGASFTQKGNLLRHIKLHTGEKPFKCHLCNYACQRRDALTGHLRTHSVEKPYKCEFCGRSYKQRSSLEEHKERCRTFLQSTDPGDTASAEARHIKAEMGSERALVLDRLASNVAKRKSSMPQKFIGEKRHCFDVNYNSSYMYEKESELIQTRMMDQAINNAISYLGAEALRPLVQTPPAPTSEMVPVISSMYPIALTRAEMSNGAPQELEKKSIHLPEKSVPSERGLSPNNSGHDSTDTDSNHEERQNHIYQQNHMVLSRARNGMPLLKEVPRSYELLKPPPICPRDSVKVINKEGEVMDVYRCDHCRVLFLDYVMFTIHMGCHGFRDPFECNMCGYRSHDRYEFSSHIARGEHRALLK
T2 sequence (Q96SW2 whole entry partner): as the sequence (Q96SW2 whole entry partner) above
T2 sequence (Q16531 2-1140 partner limits assumed): as the sequence (Q16531 2-1140 partner limits assumed) above
T2 sequence (Q13422 whole entry): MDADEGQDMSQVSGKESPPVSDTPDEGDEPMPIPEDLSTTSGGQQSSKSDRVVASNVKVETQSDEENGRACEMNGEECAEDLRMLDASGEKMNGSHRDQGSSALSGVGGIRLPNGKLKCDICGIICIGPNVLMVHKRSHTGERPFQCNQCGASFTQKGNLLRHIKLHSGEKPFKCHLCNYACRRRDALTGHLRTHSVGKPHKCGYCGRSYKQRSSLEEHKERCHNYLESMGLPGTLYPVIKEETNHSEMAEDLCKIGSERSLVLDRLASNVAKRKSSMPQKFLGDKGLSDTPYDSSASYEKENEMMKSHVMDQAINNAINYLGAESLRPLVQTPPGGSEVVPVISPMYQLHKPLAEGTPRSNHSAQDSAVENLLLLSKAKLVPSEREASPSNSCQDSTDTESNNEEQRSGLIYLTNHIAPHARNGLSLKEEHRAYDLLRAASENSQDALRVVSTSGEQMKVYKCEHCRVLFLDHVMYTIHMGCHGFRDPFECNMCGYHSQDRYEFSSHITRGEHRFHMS
T1 sequence (Q96SW2 whole entry): as the sequence (Q96SW2 whole entry partner) above
T3 sequence (P15170 whole entry): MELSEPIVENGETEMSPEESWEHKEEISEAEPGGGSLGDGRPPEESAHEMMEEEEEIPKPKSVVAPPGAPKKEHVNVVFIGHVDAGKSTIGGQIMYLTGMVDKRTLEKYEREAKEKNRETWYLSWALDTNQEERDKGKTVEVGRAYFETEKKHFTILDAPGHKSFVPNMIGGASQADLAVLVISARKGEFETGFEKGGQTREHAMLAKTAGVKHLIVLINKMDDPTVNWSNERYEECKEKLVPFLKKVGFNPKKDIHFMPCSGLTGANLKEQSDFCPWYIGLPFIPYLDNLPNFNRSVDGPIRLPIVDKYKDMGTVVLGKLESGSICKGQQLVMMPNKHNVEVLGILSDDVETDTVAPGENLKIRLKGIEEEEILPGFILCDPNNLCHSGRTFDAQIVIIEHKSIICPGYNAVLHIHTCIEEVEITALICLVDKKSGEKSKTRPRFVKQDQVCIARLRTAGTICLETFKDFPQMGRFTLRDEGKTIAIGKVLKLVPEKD
T3 sequence (Q96SW2 whole entry): as the sequence (Q96SW2 whole entry partner) above
T3 sequence (Q16531 2-1140 partner limits assumed): as the sequence (Q16531 2-1140 partner limits assumed) above
T6 sequence (Q96SW2 whole entry partner): as the sequence (Q96SW2 whole entry partner) above
T6 sequence (Q16531 2-1140 partner limits assumed): as the sequence (Q16531 2-1140 partner limits assumed) above
T6 sequence (P48729 whole entry): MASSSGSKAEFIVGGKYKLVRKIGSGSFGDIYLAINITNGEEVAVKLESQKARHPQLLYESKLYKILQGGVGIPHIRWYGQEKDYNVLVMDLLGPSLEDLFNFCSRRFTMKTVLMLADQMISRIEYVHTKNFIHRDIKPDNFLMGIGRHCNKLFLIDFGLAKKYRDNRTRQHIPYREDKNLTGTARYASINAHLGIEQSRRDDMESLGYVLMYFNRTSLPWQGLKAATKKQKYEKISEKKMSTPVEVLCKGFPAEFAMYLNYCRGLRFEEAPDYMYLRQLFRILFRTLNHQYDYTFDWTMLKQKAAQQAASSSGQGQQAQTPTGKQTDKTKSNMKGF
T4 sequence (Q96SW2 whole entry partner): as the sequence (Q96SW2 whole entry partner) above
T4 sequence (Q16531 2-1140 partner limits assumed): as the sequence (Q16531 2-1140 partner limits assumed) above
T4 sequence (Q96JP5 2-570 limits assumed): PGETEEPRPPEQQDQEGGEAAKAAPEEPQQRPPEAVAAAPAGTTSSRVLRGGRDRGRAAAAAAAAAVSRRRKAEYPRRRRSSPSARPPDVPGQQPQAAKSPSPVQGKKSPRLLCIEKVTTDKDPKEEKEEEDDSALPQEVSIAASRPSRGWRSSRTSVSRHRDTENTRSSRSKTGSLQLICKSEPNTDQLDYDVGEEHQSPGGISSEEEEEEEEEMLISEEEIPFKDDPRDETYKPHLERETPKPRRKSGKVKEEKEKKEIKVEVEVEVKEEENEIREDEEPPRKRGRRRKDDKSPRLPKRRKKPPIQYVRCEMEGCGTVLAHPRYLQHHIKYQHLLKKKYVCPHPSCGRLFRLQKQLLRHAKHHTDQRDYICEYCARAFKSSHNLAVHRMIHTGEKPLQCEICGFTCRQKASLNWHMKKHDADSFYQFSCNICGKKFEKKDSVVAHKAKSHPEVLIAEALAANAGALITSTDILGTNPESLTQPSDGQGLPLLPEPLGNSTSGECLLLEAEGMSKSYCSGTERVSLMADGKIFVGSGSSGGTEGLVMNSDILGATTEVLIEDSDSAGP

As for `COc1cc(C)c(Cl)cc1NC(=O)OCc1ccc2c(c1)C(=O)N(C1CCC(=O)NC1=O)C2` (stereo not shown) [Compound 1], the pIC50 in assay [1] (setting [4]) was above 5.77; in assay [1] (setting [5]), 5.77 to 5.96. For the same compound, the IKZF1 degradation result on IKZF1 (Ikaros) was “A”. On GSPT1 [2], the GSPT1 degradation entry was “F (F represents degradation at 0.3 μM (>90%))”. In addition, at ZFP91, the ZFP91 degradation result is listed as “A”.

Take `CCc1ncc(NC(=O)OCc2ccc3c(c2)C(=O)N(C2CCC(=O)NC2=O)C3)cc1C` (stereo not shown) [Compound 49]: the figures for the pIC50 in assay [1] (setting [4]) and in assay [1] (setting [5]) were above 5.77 and 5.77 to 5.96, respectively. The IKZF3 degradation entry on IKZF3 (Aiolos) was “A”. Moreover, on IKZF1 (Ikaros), the IKZF1 degradation result was “A”. Further, the GSPT1 degradation result at GSPT1 [2] is “F (F represents degradation at 0.3 μM (>90%))”.

Take `CC(C)(C)c1ccc(NC(=O)OCc2ccc3c(c2)C(=O)N(C2CCC(=O)NC2=O)C3)cc1` (stereo not shown) [Compound 47]: the pIC50 is above 5.77 in assay [1] (setting [4]) and 5.77 to 5.96 in assay [1] (setting [5]). For the same compound, the IKZF3 degradation entry on IKZF3 (Aiolos) is reported as “A”. On IKZF1 (Ikaros), the IKZF1 degradation result was “A”. Besides, the GSPT1 degradation entry at GSPT1 [2] is “F (F represents degradation at 0.3 μM (>90%))”.

Regarding `CC(F)(F)c1ccc(NC(=O)OCc2ccc3c(c2)C(=O)N(C2CCC(=O)NC2=O)C3)cc1` (stereo not shown) [Compound 99], the half-maximal degradation concentration (DC50) on GSPT1 [3] was in the range of 0.03 to 0.3 µM. Besides, the pIC50 in assay [1] (setting [4]) was above 5.77; in assay [1] (setting [5]) it was 5.77 to 5.96.

With `O=C1CCC(N2Cc3ccc(COC(=O)Nc4ccc(-c5ccccc5)nc4)cc3C2=O)C(=O)N1` (stereo not shown) [Compound 42], the IKZF3 degradation result on IKZF3 (Aiolos) was “A”. Moreover, the IKZF1 degradation result on IKZF1 (Ikaros) is given as “A”. In addition, the GSPT1 degradation result on GSPT1 [2] is “F (F represents degradation at 0.3 μM (>90%))”.

Regarding `Cc1ncc(NC(=O)OCc2ccc3c(c2)C(=O)N(C2CCC(=O)NC2=O)C3)cc1Cl` (stereo not shown) [Compound 6], the negative logarithm of the IC50 (pIC50) in assay [1] (setting [4]) is above 5.77; in assay [1] (setting [5]) it was 5.96 to 6.30. Further, the IKZF1 degradation entry on IKZF1 (Ikaros) was “A”. Moreover, the GSPT1 degradation entry at GSPT1 [2] is on record as “F (F represents degradation at 0.3 μM (>90%))”. Further, the CK1alpha degradation entry on CK1alpha was “A”.

As for `O=C1CCC(N2Cc3ccc(COC(=O)Nc4cccc(OC(F)(F)F)c4)cc3C2=O)C(=O)N1` (stereo not shown) [Compound 3], the values for the pIC50 in assay [1] (setting [4]) and in assay [1] (setting [5]) were above 5.77 and 5.77 to 5.96, respectively. Moreover, the IKZF3 degradation result on IKZF3 (Aiolos) is “A”. At IKZF1 (Ikaros), the IKZF1 degradation entry was “A”. In addition, the GSPT1 degradation result at GSPT1 [2] is listed as “F (F represents degradation at 0.3 μM (>90%))”.
